Test results taken from paper PMC10893492, “Anticancer Evaluation of Novel Benzofuran–Indole Hybrids as Epidermal Growth Factor Receptor Inhibitors against Non-Small-Cell Lung Cancer Cells” (Pharmaceuticals, 2024).

Molecular target: epidermal growth factor receptor (EGFR) (Homo sapiens, UniProt P00533)
Assay: EGFR kinase assay kit (BPS Bioscience) with Kinase-Glo Max luminescence
Format: biochemical

Chain of epidermal growth factor receptor (EGFR) (P00533 25-1210): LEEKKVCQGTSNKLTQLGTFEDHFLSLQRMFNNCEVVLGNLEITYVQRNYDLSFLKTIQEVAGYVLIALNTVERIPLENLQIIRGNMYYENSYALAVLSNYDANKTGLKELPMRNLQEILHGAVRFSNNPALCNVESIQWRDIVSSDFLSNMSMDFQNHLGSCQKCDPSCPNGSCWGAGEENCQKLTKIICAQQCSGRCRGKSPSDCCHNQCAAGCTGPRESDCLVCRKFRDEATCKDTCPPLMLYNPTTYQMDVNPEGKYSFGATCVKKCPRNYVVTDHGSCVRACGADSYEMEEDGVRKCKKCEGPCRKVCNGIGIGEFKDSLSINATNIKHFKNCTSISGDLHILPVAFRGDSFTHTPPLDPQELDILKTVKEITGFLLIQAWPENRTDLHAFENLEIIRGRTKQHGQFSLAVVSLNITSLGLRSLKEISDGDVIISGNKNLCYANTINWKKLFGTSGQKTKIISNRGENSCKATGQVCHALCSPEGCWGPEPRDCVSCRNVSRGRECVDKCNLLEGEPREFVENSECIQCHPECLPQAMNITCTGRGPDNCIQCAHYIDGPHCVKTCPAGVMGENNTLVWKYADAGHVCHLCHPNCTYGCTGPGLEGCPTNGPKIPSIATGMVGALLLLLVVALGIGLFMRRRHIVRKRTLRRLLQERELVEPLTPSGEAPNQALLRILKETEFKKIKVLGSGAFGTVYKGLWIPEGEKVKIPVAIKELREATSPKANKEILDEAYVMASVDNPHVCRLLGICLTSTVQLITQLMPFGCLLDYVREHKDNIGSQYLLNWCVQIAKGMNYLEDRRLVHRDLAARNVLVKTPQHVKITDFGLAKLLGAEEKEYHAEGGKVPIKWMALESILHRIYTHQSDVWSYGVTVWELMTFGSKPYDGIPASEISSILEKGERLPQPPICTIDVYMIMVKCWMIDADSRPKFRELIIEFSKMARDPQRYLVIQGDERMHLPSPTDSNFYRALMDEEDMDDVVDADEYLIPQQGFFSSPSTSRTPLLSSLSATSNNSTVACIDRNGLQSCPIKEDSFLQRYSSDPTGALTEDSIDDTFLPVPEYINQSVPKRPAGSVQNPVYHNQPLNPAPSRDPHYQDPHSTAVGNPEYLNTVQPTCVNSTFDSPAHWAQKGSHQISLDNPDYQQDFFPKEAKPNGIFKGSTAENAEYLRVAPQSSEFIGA

In the case of COc1cc2oc(-c3ccccc3)c(-c3c[nH]c4ccc(Br)cc34)c2cc1OC [8aa, 5-Bromo-3-(5,6-dimethoxy-2-phenylbenzofuran-3-yl)-1H-indole], the IC50 is reported as 440 ± 20 nM.
